From paper PMC10452847 (Cancers, 2023)

Columns and labels:
[1] = two-drug combination tolerability study; type: in vivo, mice; settings: futibatinib oral M-F three weeks, irinotecan iv Monday for three weeks, vincristine iv once
Experimental: Figure A4 Two-drug combination tolerability study. (A) Schematic of tolerability study. […] Irinotecan was given via tail vein injection at two dosages (75 mg/kg and 50 mg/kg) on Monday for three weeks. (B) Relative body weights of mice treated with the futibatinib-vincristine or futibatinib-irinotecan combinations.

RH4 xenograft [2] = test: two-drug combination xenograft efficacy study; type: in vivo, NSG mice; settings: futibatinib 15 mg/kg, irinotecan 25 mg/kg, vincristine 0.4 mg/kg, vehicle 39
SCMC xenograft [3] = test: two-drug combination xenograft efficacy study; type: in vivo, NSG mice; settings: for Days (survival, inset of Figure 4): SCMC xenograft, futibatinib 15 mg/kg, irinotecan 50 mg/kg decreased to 25 mg/kg, vincristine 0.4 mg/kg, vehicle 30
RMS559 xenograft [4] = test: triple combination xenograft efficacy study; type: in vivo, NSG mice; settings: for median survival: futibatinib 10 mg/kg oral M-F 3 weeks, irinotecan 6 mg/kg iv once, vincristine 0.4 mg/kg iv once, vehicle 11
RMS559 xenograft [5] = test: two-drug combination xenograft efficacy study; settings: for median survival: futibatinib 15 mg/kg, irinotecan 25 mg/kg, vincristine 0.4 mg/kg, vehicle 23
[6] = tested on: mutant FGFR4-driven RMS tumor; parameters: method as in PMID 24124571; settings: cited from earlier work
[7] = tested on: phosphorylation of FGFR4 and ERK1/2 in RMS559; test: Western blot of RMS559 treated with futibatinib; type: cell-based, human; settings: increasing concentrations, 6 h
Experimental: Cells were collected with a cell scraper, then pelleted by centrifugation, washed with ice-cold PBS, and lysed in RIPA buffer with 1% HALT Protease and Phosphatase inhibitors. Lysates were sonicated to shear genomic DNA and clarified by centrifugation at 18,000× g for 20 min. The protein concentration of the resulting supernatant was determined by BCA assay. 20 μg of protein was run on NuPage 4–12% BisTris gels (Invitrogen, Carlsbad, CA, USA) and transferred to PVDF membranes (Invitrogen). Membranes were blocked in 5% nonfat dried milk in TBST for 1 h at room temperature and incubated with primary antibody overnight at 4 °C. HRP-conjugated anti-rabbit secondary antibody was used to probe the primary antibody. Protein was visualized using Amersham ECL Western Blotting Detection Reagent (Amersham, UK). The following antibodies were used: pFGFR4 (ab192589, Abcam, Cambridge, UK), FGFR4 (8562, Cell Signaling Technology (CST), Danvers, MA, USA), pERK1/2 (4370, CST), ERK1/2 (4695, CST), and GAPDH (8884, CST). Relative band intensity was quantified in Image Lab software (Version 5.2.1, Bio-Rad, Philadelphia, PA, USA)

[8] = tested on: advanced solid tumors with FGFR aberrations; settings: 197 patients with advanced solid tumors with FGFR aberrations; cited from earlier work
in vivo = settings: NOD SCID Gamma (NSG), mouse, plasma, po, 25 mg/kg, 25 mg/kg oral gavage, single dose, SCMC tumor-bearing mice
RMS559 xenograft [9] = test: futibatinib single agent xenograft efficacy study; settings: 5-25 mg/kg daily (SID) oral gavage, three weeks, vs vehicle
RH4 xenograft [10] = test: futibatinib single agent xenograft efficacy study; settings: 5-25 mg/kg daily (SID) oral gavage, three weeks, vs vehicle
SCMC xenograft [11] = test: futibatinib single agent xenograft efficacy study; settings: 5-25 mg/kg daily (SID) oral gavage, three weeks, vs vehicle
RMS559 xenograft [12] = tested on: RMS559 xenograft; parameters: method as in PMID 36097178; settings: RMS559 xenograft models; twice daily dosing, nude mice; cited from earlier work

Structure (SMILES)	maximum tolerated dosages for the drug combinations [1]	Days (survival, inset of Figure 4) (RH4 xenograft [2])	Days (survival, inset of Figure 4) (SCMC xenograft [3])	median survival (RMS559 xenograft [4])	median survival (RMS559 xenograft [5])	also measured
CC[C@]1(O)C[C@H]2CN(CCc3c([nH]c4ccccc34)[C@@](C(=O)OC)(c3cc4c(cc3OC)N(C=O)[C@H]3[C@@](O)(C(=O)OC)[C@H](OC(C)=O)[C@]5(CC)C=CCN6CC[C@]43[C@@H]65)C2)C1 [vincristine]	0.4 mg/kg	41 days	37 days	15 days	23 days	average tumor volume (RMS559 xenograft [5]; day 18 of treatment, futibatinib 15 mg/kg oral M-F 3 weeks, irinotecan 25 mg/kg iv Monday 3 weeks, vincristine 0.4 mg/kg iv once): 1016 mm^3
Cc1ccc(C(=O)Nc2ccc(CN3CCN(C)CC3)c(C(F)(F)F)c2)cc1C#Cc1cnc2cccnn12 [ponatinib]						effect on tumor growth in mice [6]: inhibit mutant FGFR4-driven RMS tumor growth
C=CC(=O)N1CC[C@H](n2nc(C#Cc3cc(OC)cc(OC)c3)c3c(N)ncnc32)C1 [futibatinib]	15 mg/kg	36 days	33 days	15 days	23 days	phosphorylation of FGFR4 and ERK1/2 (western blot) [7]: inhibited phosphorylation of FGFR4 and a downstream target ERK1/2 in a dose-dependent manner; average tumor volume (RMS559 xenograft [4]; day 11 of treatment, futibatinib 10 mg/kg oral M-F, vehicle 1532): 1072 mm^3; objective response rate (ORR) [8]: 13.7%; half-life (in vivo): ~4 h; effect in delaying tumor growth or prolonging survival (RMS559 xenograft [9]): no significant effect; effect in delaying tumor growth or prolonging survival (RH4 xenograft [10]): no significant effect; effect in delaying tumor growth or prolonging survival (SCMC xenograft [11]): no significant effect
CCc1c2c(nc3ccc(OC(=O)N4CCC(N5CCCCC5)CC4)cc13)-c1cc3c(c(=O)n1C2)COC(=O)[C@]3(O)CC [irinotecan]	50 mg/kg	51.5 days	48 days	15 days	29 days	toxicity of dose (SCMC xenograft [3]; irinotecan 50 mg/kg iv on Monday, SCMC xenograft study): toxic
COCCNc1cc(NC(=O)N2CCCc3cc(CN4CCN(C)CC4=O)c(C=O)nc32)ncc1C#N [FGF401]						effect on tumor progression (RMS559 xenograft [12]): effective at delaying tumor progression
